Assay [1] deals with cloned mouse KCNQ2 (mKCNQ2) (Mus musculus, UniProt Q9Z351). The experiment in a line: KCNQ oocyte two-electrode voltage clamp, whole-cell outward current. The note with it: single holding potential (−40 μM [sic]), Xenopus oocytes. The assay is classed as cell-based. On the procedure:
The ability of compounds described in the present invention to open KCNQ channels and increase whole-cell outward (K^+) KCNQ-mediated currents was assessed under voltage-clamp conditions by determining their ability to increase cloned mouse KCNQ2 (mKCNQ2)-mediated, heteromultimeric KCNQ2/3 (mKCNQ2/hKCNQ3)-mediated, and human KCNQ5 (hKCNQ5)-mediated outward currents heterologously expressed in Xenopus oocytes. Oocytes were prepared and injected using standard techniques; each oocyte was injected with approximately 50 nl of mKCNQ2, or hKCNQ5 cRNA. In the case of mKCNQ2/h3 heteromultimeric channel expression, equal amounts (25-50 nL) of each cRNA were co-injected. […] Following injection, oocytes were maintained at 17° in ND96 medium consisting of (in mM): NaCl, 90; KCl, 1.0; CaCl2, 1.0; MgCl2, 1.0; HEPES, 5.0; pH 7.5. Horse serum (5%) and penicillin/streptomycin (5%) were added to the incubation medium. Recording commenced 2-6 days following mRNA injection. Prior to the start of an experiment oocytes were placed in a recording chamber and incubated in Modified Barth's Solution (MBS) consisting of (in mM): NaCl, 88; NaHCO3, 2.4; KCl, 1.0; HEPES, 10; MgSO4, 0.82; Ca(NO3)2, 0.33; CaCl2, 0.41; pH 7.5.
Oocytes were impaled with electrodes (1-2 MΩ) and standard 2-electrode voltage clamp techniques were employed to record whole-cell membrane currents. Recordings were accomplished using standard two-electrode voltage clamp techniques [Stuhmer, W., et al., Methods in Enzymology, Vol. 207: 319-339 (1992)]. Voltage-clamp protocols typically consisted of a series of voltage steps 1-5 sec duration, in +10 mV steps from a holding potential of −90 mV to a maximal potential of +40 mV; records were digitized at 5 kHz and stored on a computer using pClamp data acquisition and analysis software (Axon Instruments). Compounds were evaluated at a single concentration and at a single holding potential (−40 μM); the effect of the selected compounds of Formula I on KCNQ2 current was expressed as the percent of control current and is listed in Table I.

For assay [2], the system named is nerve injury-induced tactile allodynia (L5/L6 ligation), Sprague Dawley rats. The experiment in a line: Chung model of neuropathic pain (Chung surgery and von Frey test). The assay is classed as in vivo, rat. The note with it: 100 mg/kg, i.v., von Frey thresholds over 90 min. How it is done:
To test agents for activity against peripheral mononeuropathy nerve injury-induced tactile allodynia, male Sprague Dawley rats (wt. 120-160 g) were surgically prepared with unilateral tight ligation of spinal nerves L5 and L6 following the method of Kim and Chung (Kim S. H., Chung J. M. (1992) Pain, September;50(3):355-63). After 3-4 weeks recovery, paw withdrawal to light touch was assessed as described by Chaplan et al. (Chaplan S. R., et al., (1994) J. Neurosci Methods, July;53(1):55-63). In brief, rats are placed in a plastic cage with a wire mesh bottom and allowed to acclimate for 15-30 minutes, until cage exploration and grooming stops. The plantar surface of each hind paw is touched with a series of von Frey hairs with varying stiffness requiring a known force to buckle to determine the nociceptive threshold. Adult male Sprague Dawley rats (avg. wt. 340 g) were tested in the present study. After acclimation, baseline von Frey thresholds were assessed for the injured hindpaw at −15 min. All test compounds were delivered at 0 min by the intravenous (i.v.) route in a volume of 0.5-2 ml/kg. The vehicle for test compounds was 100% PEG-400. For gabapentin the vehicle was deionized H2O. Animals were tested in one of the following 4 treatment conditions: (a) PEG400, (b) gabapentin (Neurontin) 100 mg/kg, (c) test compounds 3 mg/kg and (d) test compounds 10 mg/kg. Following drug administration, von Frey thresholds are measured at 15, 30, 60 and 90 min. Data were analyzed by a 2-way repeated measures analysis of variance followed by Dunnett's test (p<0.05). Experimenters were kept blind to the treatment condition of rats they tested.
Reversal of neuropathic pain behavior may be expressed as a percentage (0-100%) of the maximum possible effect, over and above the vehicle effects. Specifically, drug effects can be described in terms Δ% MPE according to the following equation: [formula]
AUCdrug=area under the curve for von Frey thresholds of the drug-treated group;
AUCvehicle=area under the curve for von Frey thresholds in the vehicle group;
Time=duration of post-drug testing period (90 min); and
Max=maximum von Frey threshold (15 g).
For example, a compound which immediately reversed neuropathic pain behavior to normal levels, such that animals only responded to the highest von Frey filament (15 g), and maintained normal levels through out the post-drug testing period (90 min) would be calculated as Δ% MPE=100%.

Assay [3] relates to stretched attend postures, BalbC/HSD mice. Kind of assay: Canopy test for anxiety: stretched attend postures (SAPs). The assay is classed as in vivo, mouse. An excerpt:
The purpose of the Canopy test is to investigate the potential of compounds of Formula I as effective treatments for anxiety by examining an integral component of the risk assessment repertoire of defensive behaviors, the stretched attend posture (SAPs). […] This behavior is investigatory, and is considered an important behavioral indicator of anxiety in mice (Grewal et al., 1997). In brief, mice are placed on an elevated circular platform with a covered space in the middle, and an open space surrounding the covered zone. The number of SAPs the animals makes when exploring this environment are measured.
Subjects: Male BalbC/HSD mice (Harlan Sprague Dawley) weighing approximately 20-25 g at the beginning of the experiment, were used. Animals were group housed 4-5 per cage, in standard shoebox cages and maintained on a 12:12 h light-dark cycle (lights on at 0600). All animals were allowed food and water ad libitum throughout the procedure.
Apparatus: The test apparatus is comprised of a black plexiglas circular platform (70 cm diameter) elevated 60 cm above the floor. A clear red plexiglas (translucent) ‘canopy’ (38 cm diameter) is supported 4 cm directly above the platform by a central pillar, effectively dividing the platform into an inner, covered zone (beneath the canopy) and an outer, exposed zone. The apparatus is illuminated by normal room lighting.
Procedure: On test days mice are transported in their home cage to the testing room which is free of noise/distraction and the mice are injected with the compound of choice, prior to testing. For the KCNQ compounds, when administered IV, pretreatment time is 15 minutes. For oral administration, pretreatment time is 1 hour. Following the pretreatment, the animal is placed in the covered zone of the platform, always oriented in the same direction, facing the pillar. For 5 minutes the animals are allowed to freely explore the apparatus. The dependent variable is the number of Stretched Attend Postures, which are scored by an observer blind to treatment condition. Data were analyzed by an overall analysis of variance followed by Dunnett's post hoc tests. An effect was considered significant if p<0.05.
All test compounds are administered in a volume of 10 ml/kg. Vehicle and buspirone (as the positive control) treated mice were run with each experiment, and buspirone was dissolved in the same vehicle as used per each compound. Compounds of Formula I were administered IV, in a vehicle containing 10% PEG400/5% Tween/85% water, warmed on a hot plate.

Assay [4] relates to cortical spreading depression (KCl application), Long-Evans rats. Kind of assay: In vivo electrophysiology: number of cortical spreading depressions produced by KCl application. The note with it: i.v., 15 min prior to KCl, rat. An excerpt:
Male Long-Evans rats (300-450 g) were used in the present studies (Harlan). Rats were anesthetized with urethane anesthesia (1.2 g/kg i.p.) and placed in a stereotaxic frame. Under anesthesia a Silastic catheter was placed in the jugular vein of the rats. The skull was exposed using a scalpel. A small hole (approximately 2 mm by 3 mm) was drilled in to the skull rostral to the lambdoid suture using a microdrill and steel burr. The dura was disrupted and a drop of mineral oil was placed in this hole to prevent dehydration of the underlying cortex. Ultimately this hole was used for the application of crystalline KCl (described below).
Two additional holes were place in the skull unilaterally at 4 and 8 mm rostral to the application hole. Silver wire electrodes were placed in these latter holes and secured to the skull using acrylic cement. A similar silver wire electrode was sutured to the nuchal muscle to serve as a reference electrode. Electrical DC recordings were obtained using a standard differential amplifier (Warner, DP-304) and commercially available data acquisition equipment (Cambridge Electronic Design, 1401 A-D converter and Spike2 software).
All experimental procedures were conducted while the rats were maintained under anesthesia. Rats were injected with test compound, valproic acid or vehicle (100% PEG-400) 15 min prior to the application of crystalline KCl to the application site described above. All injections were given via the jugular vein at a volume of ≦0.5 ml/kg. Only one treatment was tested per animal. The effect of valproic acid was also determined in this study due to the fact that Depakote™ (divalproex sodium) is one of only three drugs currently indicated for the prophylatic treatment of migraine headache. Valproic acid (30-200 mg/kg i.v.) was obtained from Sigma Chemical Company and was dissolved in a vehicle of isotonic saline.
KCl was applied to the application site for 10 min and was then removed using a saline soaked cotton swab. Mineral oil was subsequently reapplied to the application site. Typically, this application produced a long-lasting series of spreading depressions. The number of spreading depressions produced by this KCl application was the primary measure used to access the effectiveness of compounds in this assay.
Data were analyzed using analyses of variance followed by the Dunnett post-hoc test for pairwise comparisons, when appropriate. A difference was considered significant when p≦0.05.
The effect of representative compounds of Formula I on spreading depression is expressed as the percent reduction from vehicle control and is listed in Table 3.

cloned mouse KCNQ2 (mKCNQ2), sequence (Q9Z351 whole entry): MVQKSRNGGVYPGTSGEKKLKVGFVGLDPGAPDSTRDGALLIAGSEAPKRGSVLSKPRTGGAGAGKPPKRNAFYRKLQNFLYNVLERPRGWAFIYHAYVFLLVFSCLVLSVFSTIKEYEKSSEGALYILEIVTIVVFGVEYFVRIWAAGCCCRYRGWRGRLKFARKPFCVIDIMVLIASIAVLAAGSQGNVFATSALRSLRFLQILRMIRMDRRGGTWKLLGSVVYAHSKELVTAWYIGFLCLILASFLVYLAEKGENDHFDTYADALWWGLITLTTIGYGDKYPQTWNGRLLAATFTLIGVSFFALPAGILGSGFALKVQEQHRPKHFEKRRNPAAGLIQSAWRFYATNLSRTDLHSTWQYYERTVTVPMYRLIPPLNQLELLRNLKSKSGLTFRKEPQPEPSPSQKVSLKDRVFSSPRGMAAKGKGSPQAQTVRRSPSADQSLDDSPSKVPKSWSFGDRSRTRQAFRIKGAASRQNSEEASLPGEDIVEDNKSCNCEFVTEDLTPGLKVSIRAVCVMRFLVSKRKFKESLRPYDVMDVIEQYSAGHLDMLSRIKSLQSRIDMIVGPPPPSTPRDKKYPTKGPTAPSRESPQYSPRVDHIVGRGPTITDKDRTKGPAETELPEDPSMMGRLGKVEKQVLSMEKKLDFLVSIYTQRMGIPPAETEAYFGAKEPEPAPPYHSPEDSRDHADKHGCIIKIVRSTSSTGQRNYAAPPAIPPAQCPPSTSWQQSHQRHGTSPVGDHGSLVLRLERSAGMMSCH

With `C[C@H](NC(=O)/C=C/c1ccccc1)c1ccc2ccccc2c1` [Example 2, (S)-N-(1-Naphthalen-2-yl-eth-yl)-3-phenyl-acryla-mide], in assay [1], the activity at 5 µM was found to be 160%.

Consider `NCC1(CC(=O)O)CCCCC1` [Gabapentin, gabapentin, reference compound], for which the “AUC (Δ% MPE)” value in assay [2] is 50 (100 mg/kg, i.v.) Δ% MPE.

As for `CC(NC(=O)/C=C/c1ccc(Cl)cc1)c1ccc2c(c1)CCO2` (single isomer, unassigned) [Example 79, 3-(4-Chloro-phenyl)-N-[1-(2,3-di-hydro-benzo-furan-5-yl)-ethyl]-acrylamide], in assay [1], the activity at 1 µM worked out at 123%.

For `COc1cccc(/C=C/C(=O)N[C@@H](C)c2ccc3ccccc3c2)c1OC` [Example 6, (S)-3-(2,3-Dimethoxy-phen-yl)-N-(1-naphthalen-2-yleth-yl)-acrylamide], in assay [1], the activity at 1 µM worked out at 110%.

For the compound `COC(=O)N1CCc2ccc(C(C)NC(=O)/C=C/c3ccccc3)cc2C1` (racemic) [Example 197, (±)-7-[1-(3-Phenyl-acryloyl-amino)-ethyl]-3,4-di-hydro-1H-iso-quinoline-2-carboxylic acid methyl ester], in assay [1], the activity at 10 µM was 187%.

As to `CC(NC(=O)/C=C/c1ccc(F)cc1)c1ccc(F)c(N2CCOCC2)c1` (racemic) [Example 152, (±)-N-[1-(4-Fluoro-3-morpho-lin-4-yl-phenyl)-eth-yl]-3-(4-fluoro-phen-yl)-acrylamide], the “Stretched attend postures, percent of vehicle control” value in assay [3] (separate experiments with a vehicle control, dose not given) is recorded as 80 % of vehicle control.

As to `CCCC(CCC)C(=O)O` [Valproic acid, reference compound], the “% Reduction (number of spreading depressions, from vehicle control)” value in assay [4] (100 mg/kg) is listed as 31 (100 mg/kg, i.v.) %.

For `COC(=O)N1CCc2ccc(C(C)NC(=O)/C=C/c3ccccc3Cl)cc2C1` (racemic) [Example 201, (±)-7-{1-[3-(2-Chloro-phen-yl)-acryloylamino]-eth-yl}-3,4-dihydro-1H-iso-quinoline-2-carboxylic acid methyl ester], the activity at 5 µM in assay [1] turned out to be 157%.

As to `COC(=O)N1CCc2ccc(C(C)NC(=O)/C=C/c3ccc(Cl)cc3)cc2C1` (racemic) [Example 199, (±)-7-{1-[3-(4-Chloro-phen-yl)-acryloylamino]-eth-yl}-3,4-dihydro-1H-iso-quinoline-2-carboxylic acid methyl ester], the activity at 5 µM in assay [1] amounted to 138%.

For the compound `COC(=O)N1CCc2ccc(C(C)NC(=O)/C=C/c3ccccc3C)cc2C1` (racemic) [Example 200, (±)-7-[1-(3-o-Tolyl-acryloyl-amino)-ethyl]-3,4-di-hydro-1H-iso-quinoline-2-carboxylic acid methyl ester], the activity at 10 µM in assay [1] is 126%.

With `CC(NC(=O)/C=C/c1cccc(F)c1)c1ccc2c(c1)OCCO2` (racemic) [Example 183, (±)-3-(3-Fluorophenyl)-N-[1-(2.3-dihydrobenzo[1,4]dioxin-6-yl)-ethyl]acrylamide], in assay [1], the activity at 10 µM amounted to 135%.

For the compound `C[C@H](NC(=O)/C=C/c1ccc(OC(F)(F)F)cc1)c1ccc2ccccc2c1` [Example 19, (S)-N-(1-Naphthalen-2-yl-eth-yl)-3-(4-tri-fluoromethoxy-phen-yl)-acrylamide], the activity at 1 µM in assay [1] worked out at 123%.

In the case of “(S)-N-[1-(3-(2,6-di- methyl-Morpholin)-4-yl-phen- yl)-ethyl]-3-phen- yl-acrylamide [Example 84]”, the “% Reduction (number of spreading depressions, from vehicle control)” value in assay [4] (1 mg/kg) is 37 (1 mg/kg, i.v.) %.

For the compound `O=C1CC2(CCCC2)CC(=O)N1CCCCN1CCN(c2ncccn2)CC1` [Buspirone, buspirone, reference compound], the “% Reduction SAPs” value in assay [3] (0.5 mg/kg, i.v., mouse) was 71 (0.5 mg/kg. i.v.) %. Further, in assay [3] (buspirone 0.5 mg/kg, compounds of Formula I administered IV), the “Reduction in stretched attend postures (in words)” value is reported as “significant reduction”.
